Laboratory results as given in ChEMBL document CHEMBL1201862, “PubChem BioAssay data set” (2004).
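Cells were grown in 96-well plates and exposed to each compound for 48 hours at five concentrations; endpoints were interpolated linearly between bracketing concentrations, or set to the highest concentration if not reached. Abbreviation: GI50, concentration required for 50% inhibition of growth.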 Active and inactive are the calls of the source. No stated cut-off is given here; in the data, active = GI50 up to about 1.1 µM and inactive = higher.

Columns and labels:
Assay in all cases: NCI-60 cell line screen, 48 h
786-0 = tested on: 786-0
A549 = tested on: A549
ACHN = tested on: ACHN
CAKI-1 = tested on: CAKI-1
CCRF-CEM = tested on: CCRF-CEM
COLO 205 = tested on: COLO 205
DLD-1 = tested on: DLD-1
DMS-114 = tested on: DMS-114
DMS-273 = tested on: DMS-273
EKVX = tested on: EKVX
HCC 2998 = tested on: HCC 2998
HCT-116 = tested on: HCT-116
HCT-15 = tested on: HCT-15
HL-60 = tested on: HL-60
HOP-18 = tested on: HOP-18
HOP-62 = tested on: HOP-62
HT-29 = tested on: HT-29
IGROV-1 = tested on: IGROV-1
K562 = tested on: K562
KM-20L2 = tested on: KM-20L2
KM12 = tested on: KM12
LOX IMVI = tested on: LOX IMVI
LXFL 529 = tested on: LXFL 529
M14 = tested on: M14
M19-MEL = tested on: M19-MEL
MOLT-4 = tested on: MOLT-4
Malme-3M = tested on: Malme-3M
NCI-H226 = tested on: NCI-H226
NCI-H23 = tested on: NCI-H23
NCI-H460 = tested on: NCI-H460
NCI-H522 = tested on: NCI-H522
OVCAR-3 = tested on: OVCAR-3
OVCAR-4 = tested on: OVCAR-4
OVCAR-5 = tested on: OVCAR-5
OVCAR-8 = tested on: OVCAR-8
RPMI-8226 = tested on: RPMI-8226
RXF 393 = tested on: RXF 393
SF-268 = tested on: SF-268
SF-295 = tested on: SF-295
SF-539 = tested on: SF-539
SK-MEL-28 = tested on: SK-MEL-28
SK-MEL-2 = tested on: SK-MEL-2
SK-MEL-5 = tested on: SK-MEL-5
SK-OV-3 = tested on: SK-OV-3
SN12C = tested on: SN12C
SNB-19 = tested on: SNB-19
SNB-75 = tested on: SNB-75
SNB-78 = tested on: SNB-78
SW-620 = tested on: SW-620
TK-10 = tested on: TK-10
U-251 = tested on: U-251
UACC-257 = tested on: UACC-257
UACC-62 = tested on: UACC-62
UO-31 = tested on: UO-31
XF498 = tested on: XF498
A498 = tested on: A498
HOP-92 = tested on: HOP-92
RXF 631 = tested on: RXF 631
SR = tested on: SR

Clc1cccc(-c2nnc(-c3nn(-c4ccccc4)c4nc5ccccc5nc34)o2)c1
GI50 (786-0): > 100 µM (inactive) | GI50 (A549): > 100 µM (inactive) | GI50 (ACHN): > 100 µM (inactive) | GI50 (CAKI-1): > 100 µM (inactive) | GI50 (CCRF-CEM): > 100 µM (inactive) | GI50 (COLO 205): > 100 µM (inactive) | GI50 (DLD-1): > 100 µM (inactive) | GI50 (DMS-114): > 100 µM (inactive) | GI50 (DMS-273): > 100 µM (inactive) | GI50 (EKVX): > 100 µM (inactive) | GI50 (HCC 2998): > 100 µM (inactive) | GI50 (HCT-116): > 100 µM (inactive) | GI50 (HCT-15): > 100 µM | GI50 (HL-60): > 100 µM (inactive) | GI50 (HOP-18): > 100 µM (inactive) | GI50 (HOP-62): > 100 µM (inactive) | GI50 (HT-29): > 100 µM (inactive) | GI50 (IGROV-1): > 100 µM (inactive) | GI50 (K562): > 100 µM (inactive) | GI50 (KM-20L2): > 100 µM (inactive) | GI50 (KM12): > 100 µM (inactive) | GI50 (LOX IMVI): > 100 µM (inactive) | GI50 (LXFL 529): 78.9 µM (inactive) | GI50 (M14): > 100 µM (inactive) | GI50 (M19-MEL): > 100 µM (inactive) | GI50 (MOLT-4): > 100 µM (inactive) | GI50 (Malme-3M): > 100 µM (inactive) | GI50 (NCI-H226): > 100 µM (inactive) | GI50 (NCI-H23): > 100 µM (inactive) | GI50 (NCI-H460): > 100 µM (inactive) | GI50 (NCI-H522): > 100 µM (inactive) | GI50 (OVCAR-3): > 100 µM (inactive) | GI50 (OVCAR-4): > 100 µM (inactive) | GI50 (OVCAR-5): > 100 µM (inactive) | GI50 (OVCAR-8): > 100 µM (inactive) | GI50 (RPMI-8226): > 100 µM (inactive) | GI50 (RXF 393): 56.2 µM (inactive) | GI50 (SF-268): > 100 µM (inactive) | GI50 (SF-295): > 100 µM (inactive) | GI50 (SF-539): > 100 µM (inactive) | GI50 (SK-MEL-28): > 100 µM (inactive) | GI50 (SK-MEL-2): > 100 µM (inactive) | GI50 (SK-MEL-5): 77.4 µM (inactive) | GI50 (SK-OV-3): > 100 µM (inactive) | GI50 (SN12C): > 100 µM (inactive) | GI50 (SNB-19): > 100 µM (inactive) | GI50 (SNB-75): 36.6 µM (inactive) | GI50 (SNB-78): > 100 µM (inactive) | GI50 (SW-620): > 100 µM (inactive) | GI50 (TK-10): > 100 µM (inactive) | GI50 (U-251): > 100 µM (inactive) | GI50 (UACC-257): > 100 µM (inactive) | GI50 (UACC-62): > 100 µM (inactive) | GI50 (UO-31): > 100 µM (inactive) | GI50 (XF498): 43.8 µM (inactive)

O=C(COc1ccc2c(=O)cc(-c3ccc(Cl)cc3)oc2c1)N1CCN(c2ccccc2)CC1
GI50 (786-0): > 100 µM (inactive) | GI50 (A498): 5.69 µM (inactive) | GI50 (A549): 48.9 µM (inactive) | GI50 (ACHN): > 100 µM (inactive) | GI50 (CAKI-1): > 100 µM (inactive) | GI50 (COLO 205): 4.37 µM (inactive) | GI50 (DLD-1): > 100 µM (inactive) | GI50 (EKVX): > 100 µM (inactive) | GI50 (HCC 2998): > 100 µM (inactive) | GI50 (HCT-116): 55.1 µM (inactive) | GI50 (HCT-15): > 100 µM | GI50 (HL-60): 59.3 µM (inactive) | GI50 (HOP-62): > 100 µM (inactive) | GI50 (HOP-92): 64.1 µM (inactive) | GI50 (HT-29): > 100 µM (inactive) | GI50 (IGROV-1): > 100 µM (inactive) | GI50 (K562): 4.56 µM (inactive) | GI50 (KM-20L2): > 100 µM (inactive) | GI50 (KM12): 89.9 µM (inactive) | GI50 (LOX IMVI): > 100 µM (inactive) | GI50 (LXFL 529): 11.9 µM (inactive) | GI50 (M14): > 100 µM (inactive) | GI50 (M19-MEL): > 100 µM (inactive) | GI50 (MOLT-4): 6.56 µM (inactive) | GI50 (Malme-3M): > 100 µM (inactive) | GI50 (NCI-H226): > 100 µM (inactive) | GI50 (NCI-H23): > 100 µM (inactive) | GI50 (NCI-H460): > 100 µM (inactive) | GI50 (OVCAR-3): > 100 µM (inactive) | GI50 (OVCAR-4): > 100 µM (inactive) | GI50 (OVCAR-5): > 100 µM (inactive) | GI50 (OVCAR-8): > 100 µM (inactive) | GI50 (RPMI-8226): > 100 µM (inactive) | GI50 (RXF 393): > 100 µM (inactive) | GI50 (RXF 631): 6.58 µM (inactive) | GI50 (SF-268): > 100 µM (inactive) | GI50 (SF-295): > 100 µM (inactive) | GI50 (SF-539): > 100 µM (inactive) | GI50 (SK-MEL-28): > 100 µM (inactive) | GI50 (SK-MEL-2): > 100 µM (inactive) | GI50 (SK-MEL-5): > 100 µM (inactive) | GI50 (SK-OV-3): > 100 µM (inactive) | GI50 (SN12C): 65.9 µM (inactive) | GI50 (SNB-19): > 100 µM (inactive) | GI50 (SNB-75): > 100 µM (inactive) | GI50 (SNB-78): 5.11 µM (inactive) | GI50 (SR): > 100 µM (inactive) | GI50 (SW-620): > 100 µM (inactive) | GI50 (TK-10): > 100 µM (inactive) | GI50 (U-251): > 100 µM (inactive) | GI50 (UACC-257): > 100 µM (inactive) | GI50 (UACC-62): > 100 µM (inactive) | GI50 (UO-31): 1.73 µM (inactive) | GI50 (XF498): > 100 µM (inactive)
